Experimental findings from the supplement of paper PMC10627819 are described below.

Holding throughout (assay): Bliss interaction score (quartile over a dose matrix) (fitness difference); higher = more antagonism (negative = synergy)
Common to all, as to conditions: main component drawn

One experiment has as its system S. pneumoniae D39V. A digest of the protocol:
(§1)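 Fitness is OD595 at stationary-phase entry relative to the plate's robust no-drug mean, capped at 1. Single-drug fitness was inferred from combinations. The Bliss score is observed minus product-expected fitness, summarised by quartiles over technical, biological and donor/recipient replicates.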

Another experiment concerns S. aureus Newman. The gist of the method:
as §1

A further experiment deals with B. subtilis 168. The gist of the method:
as §1

The next experiment concerns S. aureus DSM 20231. The gist of the method:
as §1
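Further: first quartile when negative (synergy) and third quartile when positive (antagonism).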

On to `CC[C@H](C)[C@H](N)C1=N[C@H](C(=O)N[C@@H](CC(C)C)C(=O)N[C@H](CCC(=O)O)C(=O)N[C@H](C(=O)N[C@H]2CCCCNC(=O)[C@H](CC(N)=O)NC(=O)[C@@H](CC(=O)O)NC(=O)[C@H](Cc3cnc[nH]3)NC(=O)[C@@H](Cc3ccccc3)NC(=O)[C@H]([C@@H](C)CC)NC(=O)[C@@H](CCCN)NC2=O)[C@@H](C)CC)CS1` [Bacitracin] + CN[C@H](CC(C)C)C(=O)N[C@H]1C(=O)N[C@@H](CC(N)=O)C(=O)N[C@H]2C(=O)N[C@H]3C(=O)N[C@H](C(=O)N[C@H](C(=O)O)c4cc(O)cc(O)c4-c4cc3ccc4O)[C@H](O[C@H]3C[C@](C)(N)[C@@H](O)[C@H](C)O3)c3ccc(c(Cl)c3)Oc3cc2cc(c3O[C@@H]2O[C@H](CO)[C@@H](O)[C@H](O)[C@H]2O[C@H]2C[C@](C)(NCc3ccc(-c4ccc(Cl)cc4)cc3)[C@@H](O)[C@H](C)O2)Oc2ccc(cc2Cl)[C@H]1O [Oritavancin], for which the Bliss interaction score was 0.0372 in the experiment on S. pneumoniae D39V, 0.084 in the experiment with S. aureus Newman, -0.0398 with B. subtilis 168 and -0.0199 in the experiment on S. aureus DSM 20231.

`CC[C@H](C)[C@H](N)C1=N[C@H](C(=O)N[C@@H](CC(C)C)C(=O)N[C@H](CCC(=O)O)C(=O)N[C@H](C(=O)N[C@H]2CCCCNC(=O)[C@H](CC(N)=O)NC(=O)[C@@H](CC(=O)O)NC(=O)[C@H](Cc3cnc[nH]3)NC(=O)[C@@H](Cc3ccccc3)NC(=O)[C@H]([C@@H](C)CC)NC(=O)[C@@H](CCCN)NC2=O)[C@@H](C)CC)CS1` [Bacitracin] + CO[C@@]12[C@H](COC(N)=O)C3=C(C(=O)C(C)=C(N)C3=O)N1C[C@@H]1N[C@@H]12 [MitomycinC]: the Bliss interaction score with S. pneumoniae D39V was -0.0853; in the experiment on S. aureus Newman, -0.0961; in the experiment with B. subtilis 168, -0.0673; in the experiment on S. aureus DSM 20231, -0.0743.

Take `CC[C@H](C)[C@H](N)C1=N[C@H](C(=O)N[C@@H](CC(C)C)C(=O)N[C@H](CCC(=O)O)C(=O)N[C@H](C(=O)N[C@H]2CCCCNC(=O)[C@H](CC(N)=O)NC(=O)[C@@H](CC(=O)O)NC(=O)[C@H](Cc3cnc[nH]3)NC(=O)[C@@H](Cc3ccccc3)NC(=O)[C@H]([C@@H](C)CC)NC(=O)[C@@H](CCCN)NC2=O)[C@@H](C)CC)CS1` [Bacitracin] + CO[C@H]1/C=C/O[C@@]2(C)Oc3c(C)c(O)c4c(O)c(c(/C=N/N5CCN(C)CC5)c(O)c4c3C2=O)NC(=O)/C(C)=C\C=C\[C@H](C)[C@H](O)[C@@H](C)[C@@H](O)[C@@H](C)[C@H](OC(C)=O)[C@@H]1C [Rifampicin]: the Bliss interaction score with S. pneumoniae D39V is 0.104; in the experiment with S. aureus Newman it was -0.0236; in the experiment with B. subtilis 168, -0.0806; in the experiment on S. aureus DSM 20231, 0.0174.

Consider `CC[C@H](C)[C@H](N)C1=N[C@H](C(=O)N[C@@H](CC(C)C)C(=O)N[C@H](CCC(=O)O)C(=O)N[C@H](C(=O)N[C@H]2CCCCNC(=O)[C@H](CC(N)=O)NC(=O)[C@@H](CC(=O)O)NC(=O)[C@H](Cc3cnc[nH]3)NC(=O)[C@@H](Cc3ccccc3)NC(=O)[C@H]([C@@H](C)CC)NC(=O)[C@@H](CCCN)NC2=O)[C@@H](C)CC)CS1` [Bacitracin] + C[C@@H](O)[C@H]1C(=O)N2C(C(=O)O)=C(SCCNC=N)C[C@H]12 [Imipenem], for which the Bliss interaction score in the experiment on S. pneumoniae D39V is -0.0576; with S. aureus Newman, -0.0113; with B. subtilis 168, -0.359; in the experiment on S. aureus DSM 20231, 0.0207.

For the compound `CC[C@H](C)[C@H](N)C1=N[C@H](C(=O)N[C@@H](CC(C)C)C(=O)N[C@H](CCC(=O)O)C(=O)N[C@H](C(=O)N[C@H]2CCCCNC(=O)[C@H](CC(N)=O)NC(=O)[C@@H](CC(=O)O)NC(=O)[C@H](Cc3cnc[nH]3)NC(=O)[C@@H](Cc3ccccc3)NC(=O)[C@H]([C@@H](C)CC)NC(=O)[C@@H](CCCN)NC2=O)[C@@H](C)CC)CS1` [Bacitracin] + Clc1ccc(COC(Cn2ccnc2)c2ccc(Cl)cc2Cl)c(Cl)c1 [Miconazole], the Bliss interaction score in the experiment on S. pneumoniae D39V was 0.113; in the experiment on S. aureus Newman, -0.0691; with B. subtilis 168, -0.0878; in the experiment on S. aureus DSM 20231, -0.0238.

Take `CC[C@H](C)[C@H](N)C1=N[C@H](C(=O)N[C@@H](CC(C)C)C(=O)N[C@H](CCC(=O)O)C(=O)N[C@H](C(=O)N[C@H]2CCCCNC(=O)[C@H](CC(N)=O)NC(=O)[C@@H](CC(=O)O)NC(=O)[C@H](Cc3cnc[nH]3)NC(=O)[C@@H](Cc3ccccc3)NC(=O)[C@H]([C@@H](C)CC)NC(=O)[C@@H](CCCN)NC2=O)[C@@H](C)CC)CS1` [Bacitracin] + N[C@@H]1CONC1=O [CycloserineD]: the Bliss interaction score in the experiment with S. pneumoniae D39V is 0.118; in the experiment on S. aureus Newman, 0.0872; in the experiment on B. subtilis 168 it was 0.0719; in the experiment on S. aureus DSM 20231 it was -0.0841.
